# Laboratory results from patent publication US9822139B2, “Pharmaceutical composition containing cyclometalated N-heterocyclic carbene complexes for cancer treatment” (THE UNIVERSITY OF HONG KONG, priority 2009, dated 2017).
# What was measured:
# KB cells = experiment: Alkaline comet assay for DNA strand breaks; format: cell-based
# melanoma (B16) = experiment: MTT cytotoxicity assay, B16; format: cell-based, mouse; settings: 72 h
# Method: (§1) Example 2 describes the in vitro cytotoxicity, which is indicative of the induction of cell death and/or inhibition of cellular proliferation of cancer cells, of the cyclometalated N-heterocyclic complexes on cervical epithelioid carcinoma, hepatocellular carcinoma, leukemia, nasopharyngeal carcinoma, breast carcinoma, melanoma, and lung carcinoma.
# (§2) By means of MTT assays, the cytotoxic properties of cyclometalated N-heterocyclic carbene complexes (1-25) were determined toward some established human cancer cell lines including hepatocellular carcinoma (HepG2), cervical epithelioid carcinoma (HeLa), epithelial carcinoma (KB and its camptothecin-resistant cell line KB100), non-small cell lung carcinoma (NCI-H460), leukemia (HL-60), breast carcinoma (MDA-MB-231), melanoma (B16) and nasopharyngeal carcinoma (SUNE1). […] In terms of the IC50 values, they display similar cytotoxic properties compared to the reference complexes cisplatin and camptothecin (CPT).
# leukemia (HL-60) = experiment: MTT cytotoxicity assay, HL-60; format: cell-based, human; settings: 72 h
# Method: as §1, §2
# [1] = test system: lung fibroblast cells (CCD-19Lu); experiment: MTT cytotoxicity to non-cancerous cells, CCD-19Lu; format: cell-based, human; settings: 72 h, non-cancerous lung fibroblast cells CCD-19Lu
# Method: as §2
# Using lung fibroblast cells (CCD-19Lu), the cytotoxicity of the complexes to non-cancerous cells was also examined.
# [2] = test system: PLC tumor (hepatocellular carcinoma); experiment: In vivo anti-cancer study, nude mice bearing PLC tumor; settings: 3 mg/kg/week for 28 days
# From the text: Prompted by the prominent in vitro cytotoxicity and the potential cancer-cell selectivity, the in vivo anti-cancer property of complex 1 was preliminarily examined by using nude mice models with the approval from the Committee on the Use of Live Animals for Teaching and Research (The University of Hong Kong).
# [3] = test system: camptothecin-resistant cell line KB100; experiment: MTT cytotoxicity assay, KB100; format: cell-based, human; settings: 72 h
# Method: as §1, §2
# [4] = test system: established human cancer cell lines; experiment: MTT cytotoxicity, panel of cancer cell lines (summary statements); format: cell-based; settings: in terms of IC50, versus cisplatin
# Method: as §2
# [5] = test system: cervical epithelioid carcinoma (HeLa); experiment: MTT cytotoxicity assay, HeLa; format: cell-based, human; settings: 72 h
# Method: as §1, §2
# SUNE1 cells = experiment: Apoptosis induction by flow cytometry (AV-FITC / PI); format: cell-based; settings: 72 h
# Method: Since cancer is characterized by uncontrolled cellular proliferation, there is a considerable interest in chemotherapeutic-induced apoptosis [J. C. Reed, Nature Rev. Drug Discov. 2002, 1, 111; D. W. Nicholson, Nature 2000, 407, 810]. Using fluorescein-labeled annexin V (AV-FITC) and propidium iodide (PI), the apoptosis-inducing properties of complex 1 in SUNE1 cells were examined by flow cytometry. […] The apoptosis-inducing properties of complex 1 at a lower dose (12 μM for 72 h) were also examined. […] According to the propagation profiles (formazan absorbance A550nm vs incubation time) of the treated SUNE1 cells, there is a trend of cellular growth inhibition in the presence of complex 1 at 12 μM level. Taken together with the flow cytometric results, complex 1 appears to inhibit cancer cell proliferation at 12 μM and induce apoptosis at higher doses (i.e. 60 μM).
# The apoptosis-inducing properties of complex 14 in SUNE1 cells were also examined by flow cytometry. […] The apoptosis-inducing properties of complex 14 at a lower dose (1 μM for 72 h) were also examined. […] Thus, complex 14 could induce apoptosis at 10 μM.
# [6] = test system: non-small cell lung carcinoma (NCI-H460); experiment: MTT cytotoxicity assay, NCI-H460; format: cell-based, human; settings: 72 h
# Method: as §1, §2
# [7] = test system: hepatocellular carcinoma (HepG2); experiment: MTT cytotoxicity assay, HepG2; format: cell-based, human; settings: 72 h
# Method: as §1, §2
# topoisomerase I (TopoI) = target: T1, topoisomerase I (TopoI) (Homo sapiens, UniProt P11387); experiment: TopoI-mediated relaxation of supercoiled DNA; format: biochemical
# T1 sequence (P11387 1-765): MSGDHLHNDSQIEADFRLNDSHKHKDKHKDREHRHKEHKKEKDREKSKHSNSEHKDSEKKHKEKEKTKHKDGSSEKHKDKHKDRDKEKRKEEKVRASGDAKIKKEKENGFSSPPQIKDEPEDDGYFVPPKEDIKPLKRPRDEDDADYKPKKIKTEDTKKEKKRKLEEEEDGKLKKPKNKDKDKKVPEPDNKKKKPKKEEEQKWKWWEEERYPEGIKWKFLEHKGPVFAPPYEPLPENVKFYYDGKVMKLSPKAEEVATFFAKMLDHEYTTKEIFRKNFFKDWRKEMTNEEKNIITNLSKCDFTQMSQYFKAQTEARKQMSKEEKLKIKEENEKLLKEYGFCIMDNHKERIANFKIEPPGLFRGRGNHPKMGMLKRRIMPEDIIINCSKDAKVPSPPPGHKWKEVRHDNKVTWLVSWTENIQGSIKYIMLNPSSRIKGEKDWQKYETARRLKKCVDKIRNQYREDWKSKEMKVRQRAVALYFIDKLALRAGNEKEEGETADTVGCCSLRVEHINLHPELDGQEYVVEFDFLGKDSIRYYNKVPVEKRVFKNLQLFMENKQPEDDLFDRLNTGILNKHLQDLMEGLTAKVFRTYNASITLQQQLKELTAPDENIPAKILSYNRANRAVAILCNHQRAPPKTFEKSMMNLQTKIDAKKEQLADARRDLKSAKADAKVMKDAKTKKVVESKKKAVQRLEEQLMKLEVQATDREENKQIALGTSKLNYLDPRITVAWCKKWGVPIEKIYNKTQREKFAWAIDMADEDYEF
# From the text: DNA strand breaks were also detected in complex 1-treated KB cells by alkaline comet assay. […] Topoisomerases have become one of the important cellular targets for anti-cancer treatment. It is believed that topoisomerase inhibitors prevent the ligation step of the cell cycle, generate DNA strand breaks, and subsequently induce apoptosis in cells. […] The assay was repeated on ethidium bromide containing gel (FIG. 4, lower).
# TopoI = target: T2, TopoI (Homo sapiens, UniProt P11387); experiment: Band depletion assay for TopoI cleavable complexes; format: cell-based; settings: 10 and 100 nM, KB cells
# T2 construct: endogenous in cells; host or cells: KB cells
# T2 sequence (P11387 1-765): T1 sequence (P11387 1-765)
# From the text: In this assay, while TopoI-DNA cleavable complexes are trapped by alkaline lysis, free TopoI is detected as an immunoreactive band.
# [8] = test system: breast carcinoma (MDA-MB-231); experiment: MTT cytotoxicity assay, MDA-MB-231; format: cell-based, human; settings: 72 h, MBA-MD-231
# Method: as §1, §2
# [9] = test system: epithelial carcinoma (KB); experiment: MTT cytotoxicity assay, KB; format: cell-based, human; settings: 72 h
# Method: as §1, §2
smiles,measurement,setting,value
Cn1cc[n+](C)[c]1[Au-]12[c]3ccccc3-c3cccc([n+]31)-c1cccc[c]12.O=S(=O)([O-])C(F)(F)F [Complex 1],strand breaks on chromosomal DNA (comet assay),"KB cells; 0.5 μM, 3 h, KB cells",induced extensive strand breaks on chromosomal DNA
same,reversal of DNA cleavage events upon second incubation,KB cells; second incubation at 55° C. for 10 min,partially reversed
same,IC50,melanoma (B16),330 nM
same,IC50,leukemia (HL-60),480 nM
same,IC50,[1],25000 nM
same,toxic side-effect including death and weight loss,[2]; nude mice,no apparent 1-induced toxic side-effect including death and weight loss was observed
same,suppression of tumor growth compared to vehicle control,[2]; nude mice bearing PLC tumor,47%
same,IC50,[3],1200 nM
same,fold higher cytotoxic activity than cisplatin,[4],18 to 28 fold
same,IC50,[5],150 nM
same,viable cells unstained by both AV-FITC and PI,SUNE1 cells; 12 μM,~90%
same,SUNE1 cells in early apoptotic state,SUNE1 cells; 60 μM,30.9%
same,IC50,[6],170 nM
same,IC50,[7],370 nM
same,inhibition of TopoI-mediated DNA relaxation,topoisomerase I (TopoI); 10 μM,completely inhibited
same,inhibition of TopoI-mediated DNA relaxation,"topoisomerase I (TopoI); dose response, compared with CPT",dose-dependently inhibits DNA relaxation at significant lower concentrations than CPT
same,nicked DNA (stimulation of DNA cleavage by TopoI),topoisomerase I (TopoI); ethidium bromide containing gel,presence of nicked DNA was observed
same,band intensity of the TopoI band,TopoI,reduced the band intensity of the TopoI band
same,IC50,[8],620 nM
same,IC50,[9],560 nM
